Data taken from PMC12475007 (2025).

Columns and labels:
Experiment in all cases: fluorescence bead binding assay
Conditions in all cases: binding buffer, room temperature, 1 h; immobilised compound (on beads)
[1] = test system: P1 (DNA, aptamer) TGCGGAGCGAGGCCCTAGGCGTGGTGGCATTGATTTGTAT
[2] = test system: P2 (DNA, aptamer) AGACGTGATGAAGTTCAATCAGGATGCAATGTATTAATGG
[3] = test system: P3 (DNA, aptamer) CCAAGCATCGTCACATCACATTATCACACATTGTCGTCCGT
[4] = test system: P4 (DNA, aptamer) TGTGCATTCGTGTGAATTAACTCGTCCACCAGAGCCCGTG
[5] = test system: P5 (DNA, aptamer) ACATGTGTAGGCGGTTGGATGCATTATGAGATGGGACATG
[6] = test system: L4 (DNA, aptamer) TAAGCCCGGCTGAGATAACGGTTGATCCGAAGCTGGTTTT
[7] = test system: L3 (DNA, aptamer) CACACATACGGGAGAGGCCCCATAAACTCATGCACGTCCTG
[8] = test system: L1 (DNA, aptamer) CAGTCTGCGCCGATTTCTCGCGGATTGCGACGAGGATACG
[9] = test system: L2 (DNA, aptamer) CCCATCACCACATTGTCACATCACTCGTCACATACAGCCCG

Row | Kd [1] [nM] | Kd [2] [nM] | Kd [3] [nM] | Kd [4] [nM] | Kd [5] [nM] | Kd [6] [nM] | Kd [7] [nM] | Kd [8] [nM] | Kd [9] [nM] | SMILES
1 | 139.2 | 484.2 | 38.02 | 208.1 | 54.07 | – | – | – | – | CC(=O)O[C@H]1C(=O)[C@@]2(C)[C@H]([C@H](OC(=O)c3ccccc3)[C@]3(O)C[C@H](OC(=O)[C@H](O)[C@@H](NC(=O)c4ccccc4)c4ccccc4)C(C)=C1C3(C)C)[C@]1(OC(C)=O)CO[C@@H]1C[C@@H]2O
2 | – | – | – | – | – | 285.7 | 225.7 | 125.7 | 284.2 | Nc1nc(=O)c2c([nH]1)NC[C@@H](CNc1ccc(C(=O)N[C@@H](CCC(=O)O)C(=O)O)cc1)N2C=O
